Experimental data: the NIST ThermoML archive (doi:10.1021/je0301040)
± gives the expanded uncertainty stated by the source.

Test: xn = mol fraction of the nth substance listed

SMILES: FC(Cl)(Cl)Cl [trichlorofluoromethane] + FC(F)Cl
- mass density (374.97 K, 3116.9 kPa, Liquid, Pycnometric method, x1 = 0.8336): 1216.83 ± 2.6 kg/m3
- mass density (374.97 K, 14051 kPa, Liquid, Pycnometric method, x1 = 0.8336): 1279.66 ± 2 kg/m3
- mass density (374.97 K, 21566 kPa, Liquid, Pycnometric method, x1 = 0.8336): 1310.86 ± 1.9 kg/m3
- mass density (374.97 K, 27844 kPa, Liquid, Pycnometric method, x1 = 0.8336): 1332.88 ± 1.7 kg/m3
- mass density (374.97 K, 35188 kPa, Liquid, Pycnometric method, x1 = 0.8336): 1355.43 ± 1.7 kg/m3
- mass density (374.97 K, 42212 kPa, Liquid, Pycnometric method, x1 = 0.8336): 1374.59 ± 1.6 kg/m3
- mass density (374.97 K, 48936 kPa, Liquid, Pycnometric method, x1 = 0.8336): 1391.15 ± 1.6 kg/m3
- mass density (374.97 K, 56118 kPa, Liquid, Pycnometric method, x1 = 0.8336): 1407.35 ± 1.6 kg/m3
- mass density (374.97 K, 63201 kPa, Liquid, Pycnometric method, x1 = 0.8336): 1422.2 ± 1.6 kg/m3
- mass density (374.97 K, 67438 kPa, Liquid, Pycnometric method, x1 = 0.8336): 1430.6 ± 1.6 kg/m3
- mass density (374.98 K, 99.9 kPa, Fluid (supercritical or subcritical phases), Burnett expansion method, x1 = 0.832): 4.192 ± 0.084 kg/m3
- mass density (374.98 K, 100.73 kPa, Fluid (supercritical or subcritical phases), Burnett expansion method, x1 = 0.832): 4.2353 ± 0.085 kg/m3
- mass density (374.98 K, 141.34 kPa, Fluid (supercritical or subcritical phases), Burnett expansion method, x1 = 0.832): 5.9685 ± 0.12 kg/m3
- mass density (374.98 K, 195.81 kPa, Fluid (supercritical or subcritical phases), Burnett expansion method, x1 = 0.832): 8.3248 ± 0.17 kg/m3
- mass density (374.98 K, 197.47 kPa, Fluid (supercritical or subcritical phases), Burnett expansion method, x1 = 0.832): 8.4097 ± 0.17 kg/m3
- mass density (374.98 K, 216.98 kPa, Fluid (supercritical or subcritical phases), Burnett expansion method, x1 = 0.832): 9.2699 ± 0.19 kg/m3
- mass density (374.98 K, 272.55 kPa, Fluid (supercritical or subcritical phases), Burnett expansion method, x1 = 0.832): 11.7304 ± 0.24 kg/m3
- mass density (374.98 K, 275.03 kPa, Fluid (supercritical or subcritical phases), Burnett expansion method, x1 = 0.832): 11.8505 ± 0.24 kg/m3
- mass density (374.98 K, 301.92 kPa, Fluid (supercritical or subcritical phases), Burnett expansion method, x1 = 0.832): 13.0615 ± 0.26 kg/m3
- mass density (374.98 K, 377.56 kPa, Fluid (supercritical or subcritical phases), Burnett expansion method, x1 = 0.832): 16.5279 ± 0.33 kg/m3
- mass density (374.98 K, 381 kPa, Fluid (supercritical or subcritical phases), Burnett expansion method, x1 = 0.832): 16.6977 ± 0.33 kg/m3
- mass density (374.98 K, 417.41 kPa, Fluid (supercritical or subcritical phases), Burnett expansion method, x1 = 0.832): 18.4053 ± 0.37 kg/m3
- mass density (374.98 K, 518.62 kPa, Fluid (supercritical or subcritical phases), Burnett expansion method, x1 = 0.832): 23.2877 ± 0.47 kg/m3
- mass density (374.98 K, 523.72 kPa, Fluid (supercritical or subcritical phases), Burnett expansion method, x1 = 0.832): 23.528 ± 0.47 kg/m3
- mass density (374.98 K, 569 kPa, Gas, isochoric method, x1 = 0.832): 201.277 ± 0.14 kg/m3
- mass density (374.98 K, 1592.7 kPa, Liquid, Pycnometric method, x1 = 0.8336): 1204.96 ± 2.5 kg/m3
- mass density (374.98 K, 1802 kPa, Liquid, Pycnometric method, x1 = 0.8336): 1206.68 ± 2.7 kg/m3
- mass density (374.98 K, 3500.8 kPa, Liquid, Pycnometric method, x1 = 0.8336): 1219.67 ± 2.6 kg/m3
- mass density (374.98 K, 7519.3 kPa, Liquid, Pycnometric method, x1 = 0.8336): 1245.72 ± 2.3 kg/m3
- mass density (375.98 K, 3481.1 kPa, Liquid, isochoric method, x1 = 0.832): 1216.37 ± 0.41 kg/m3
- mass density (375.98 K, 3481.3 kPa, Liquid, isochoric method, x1 = 0.832): 1216.37 ± 0.41 kg/m3
- mass density (380.97 K, 5662.2 kPa, Liquid, isochoric method, x1 = 0.832): 1216.02 ± 0.41 kg/m3
- mass density (385.97 K, 7843.6 kPa, Liquid, isochoric method, x1 = 0.832): 1215.66 ± 0.4 kg/m3
- mass density (385.97 K, 7845.9 kPa, Liquid, isochoric method, x1 = 0.832): 1215.66 ± 0.4 kg/m3
- mass density (389.97 K, 399.7 kPa, Gas, isochoric method, x1 = 0.832): 131.569 ± 0.092 kg/m3
- mass density (389.97 K, 864.3 kPa, Gas, isochoric method, x1 = 0.832): 304.496 ± 0.21 kg/m3
- mass density (399.96 K, 7536.5 kPa, Liquid, Pycnometric method, x1 = 0.8336): 1168.49 ± 2.5 kg/m3
- mass density (399.96 K, 49152 kPa, Liquid, Pycnometric method, x1 = 0.8336): 1348.85 ± 1.5 kg/m3
- mass density (399.97 K, 617 kPa, Gas, isochoric method, x1 = 0.832): 201.042 ± 0.14 kg/m3
- mass density (399.97 K, 3101 kPa, Liquid, Pycnometric method, x1 = 0.8336): 1123.2 ± 3 kg/m3
- mass density (399.97 K, 3459.9 kPa, Liquid, Pycnometric method, x1 = 0.8336): 1127.62 ± 3.1 kg/m3
- mass density (399.97 K, 3838.5 kPa, Liquid, Pycnometric method, x1 = 0.8336): 1132.14 ± 3.1 kg/m3
- mass density (399.97 K, 5333.9 kPa, Liquid, Pycnometric method, x1 = 0.8336): 1148.2 ± 2.9 kg/m3
- mass density (399.97 K, 14526 kPa, Liquid, Pycnometric method, x1 = 0.8336): 1217.33 ± 2 kg/m3
- mass density (399.97 K, 21523 kPa, Liquid, Pycnometric method, x1 = 0.8336): 1253.75 ± 1.8 kg/m3
- mass density (399.97 K, 28491 kPa, Liquid, Pycnometric method, x1 = 0.8336): 1283.14 ± 1.6 kg/m3
- mass density (399.97 K, 35354 kPa, Liquid, Pycnometric method, x1 = 0.8336): 1307.71 ± 1.6 kg/m3
- mass density (399.97 K, 56281 kPa, Liquid, Pycnometric method, x1 = 0.8336): 1366.92 ± 1.4 kg/m3
- mass density (399.97 K, 63214 kPa, Liquid, Pycnometric method, x1 = 0.8336): 1383.07 ± 1.5 kg/m3
- mass density (399.98 K, 2379 kPa, Liquid, Pycnometric method, x1 = 0.8336): 1111.44 ± 2.9 kg/m3
- mass density (399.98 K, 2438.9 kPa, Liquid, Pycnometric method, x1 = 0.8336): 1114.58 ± 2.8 kg/m3
- mass density (399.98 K, 2791.2 kPa, Liquid, Pycnometric method, x1 = 0.8336): 1119.29 ± 3 kg/m3
- mass density (399.98 K, 41888 kPa, Liquid, Pycnometric method, x1 = 0.8336): 1328.37 ± 1.5 kg/m3
- mass density (404.97 K, 909.7 kPa, Gas, isochoric method, x1 = 0.832): 304.283 ± 0.24 kg/m3
- mass density (404.97 K, 1209.7 kPa, Gas, isochoric method, x1 = 0.832): 426.452 ± 0.33 kg/m3
- mass density (409.97 K, 5121.7 kPa, Liquid, isochoric method, x1 = 0.832): 1111.12 ± 0.4 kg/m3
- mass density (414.97 K, 1254.6 kPa, Gas, isochoric method, x1 = 0.832): 426.252 ± 0.35 kg/m3
- mass density (414.97 K, 1558.2 kPa, Gas, isochoric method, x1 = 0.832): 556.482 ± 0.46 kg/m3
- mass density (415.97 K, 7015.9 kPa, Liquid, isochoric method, x1 = 0.832): 1110.75 ± 0.39 kg/m3
- mass density (419.96 K, 1587.9 kPa, Gas, isochoric method, x1 = 0.832): 556.352 ± 0.51 kg/m3
- mass density (421.97 K, 8915.8 kPa, Liquid, isochoric method, x1 = 0.832): 1110.38 ± 0.4 kg/m3
- mass density (424.96 K, 76.05 kPa, Fluid (supercritical or subcritical phases), Burnett expansion method, x1 = 0.832): 2.7936 ± 0.056 kg/m3
- mass density (424.96 K, 106.8 kPa, Fluid (supercritical or subcritical phases), Burnett expansion method, x1 = 0.832): 3.939 ± 0.079 kg/m3
- mass density (424.96 K, 136.17 kPa, Fluid (supercritical or subcritical phases), Burnett expansion method, x1 = 0.832): 5.049 ± 0.1 kg/m3
- mass density (424.96 K, 191.33 kPa, Fluid (supercritical or subcritical phases), Burnett expansion method, x1 = 0.832): 7.117 ± 0.14 kg/m3
- mass density (424.96 K, 210.5 kPa, Fluid (supercritical or subcritical phases), Burnett expansion method, x1 = 0.832): 7.8282 ± 0.16 kg/m3
- mass density (424.96 K, 268.07 kPa, Fluid (supercritical or subcritical phases), Burnett expansion method, x1 = 0.832): 10.034 ± 0.2 kg/m3
